The source of these data is US20260258035A1, “FIVE-MEMBERED AND SIX-MEMBERED NITROGEN-CONTAINING COMPOUND, AND INTERMEDIATE, PREPARATION METHOD AND USE THEREOF” (HANGZHOU SYNRX THERAPEUTICS BIOMEDICAL TECHNOLOGY CO., LTD., priority 2022, published 2026).

One test relates to HCC1806. The test can be described thus: Cell viability assay (CellTiter-Glo). In kind it is cell-based, Human. The conditions noted are these: HCC1806, 7 days, CellTiter-Glo, read-out: IC50 (nM) in cell viability assay. For orientation: In ATP-based viability assays light output follows the ATP content of the culture.
The next test addresses PARG (Homo sapiens, UniProt Q86W56). The test can be described thus: Biochemical assay (PARG, TFMU-ADPr substrate).
Where [1] appears, read: 4 nM PARG, 66.2 uM TFMU-ADPr, 3 min at room temperature.

The structures appear in SMILES notation. Where two headings read alike, the source gives them in different places.

The term IC50 denotes the midpoint of a concentration-inhibition curve.

Sequence of PARG (Q86W56 whole entry): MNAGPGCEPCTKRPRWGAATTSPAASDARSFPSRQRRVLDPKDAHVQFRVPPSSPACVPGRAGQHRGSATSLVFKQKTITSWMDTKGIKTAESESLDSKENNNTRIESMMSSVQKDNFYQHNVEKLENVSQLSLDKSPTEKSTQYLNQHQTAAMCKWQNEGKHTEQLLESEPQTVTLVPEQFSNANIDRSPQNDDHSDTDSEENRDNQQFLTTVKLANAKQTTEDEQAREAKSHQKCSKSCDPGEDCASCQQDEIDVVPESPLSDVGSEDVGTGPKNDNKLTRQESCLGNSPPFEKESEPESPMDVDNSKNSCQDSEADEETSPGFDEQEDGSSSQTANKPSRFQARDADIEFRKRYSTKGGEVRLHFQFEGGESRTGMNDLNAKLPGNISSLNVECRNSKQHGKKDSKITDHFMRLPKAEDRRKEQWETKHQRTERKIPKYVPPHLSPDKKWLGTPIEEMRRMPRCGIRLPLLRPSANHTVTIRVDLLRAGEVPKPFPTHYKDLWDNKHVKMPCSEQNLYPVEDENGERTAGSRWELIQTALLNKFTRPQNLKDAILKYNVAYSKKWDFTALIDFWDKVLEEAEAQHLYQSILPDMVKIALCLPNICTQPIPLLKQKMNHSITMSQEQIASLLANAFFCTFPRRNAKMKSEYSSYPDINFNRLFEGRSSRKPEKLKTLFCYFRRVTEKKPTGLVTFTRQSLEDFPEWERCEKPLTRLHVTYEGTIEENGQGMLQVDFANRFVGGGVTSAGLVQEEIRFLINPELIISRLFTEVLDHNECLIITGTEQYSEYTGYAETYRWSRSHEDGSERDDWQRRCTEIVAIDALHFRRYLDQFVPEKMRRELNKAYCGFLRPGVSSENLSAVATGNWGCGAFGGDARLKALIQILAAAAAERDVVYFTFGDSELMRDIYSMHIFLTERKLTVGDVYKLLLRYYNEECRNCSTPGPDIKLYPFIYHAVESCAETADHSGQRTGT

Regarding `N#CC1(NS(=O)(=O)c2cc(N3CCN(C4COC4)CC3)c3cnc(-c4nnc(C(F)F)s4)n3c2)CC1` [Example 147, N-(1-cyanocyclopropyl)-3-(5-(difluoromethyl)-1,3,4-thiadiazol-2-yl)-8-(4-(oxetan-3-yl)piperazin-1-yl)imidazo[1,5-a]pyridine-6-sulfonamide], the IC50 is 9940 nM in the test with HCC1806; 5000 to 30000 nM with HCC1806 (Homo sapiens, HCC1806, 168 h); < 100 nM against PARG (setting [1]); 34.1 nM against PARG (PARG, TFMU-ADPr substrate). `N#CC1(NS(=O)(=O)c2cc(N3CCCC(N)C3)c3cnc(-c4nnc(C(F)(F)F)s4)n3c2)CC1` (centres unmarked) [Example 262, 8-(3-aminopiperidin-1-yl)-N-(1-cyanocyclopropyl)-3-(5-(trifluoromethyl)-1,3,4-thiadiazol-2-yl)imidazo[1,5-a]pyridine-6-sulfonamide]: in the test on HCC1806 (Homo sapiens, HCC1806, 168 h), the IC50 is 2000 nM.

In the case of `CN(C)CCN(C)C(=O)N1CCN(c2cc(S(=O)(=O)NC3(C)COC3)cn3c(-c4nnc(C(F)F)s4)nc(Cl)c23)CC1` [Example 188, 4-(1-chloro-3-(5-(difluoromethyl)-1,3,4-thiadiazol-2-yl)-6-(N-(3-methyloxetan-3-yl)sulfamoyl)imidazo[1,5-a]pyridin-8-yl)-N-(2-(dimethylamino)ethyl)-N-methylpiperazine-1-carboxamide], the IC50 with HCC1806 (Homo sapiens, HCC1806, 168 h) was 85 nM; against PARG (PARG, TFMU-ADPr substrate), 0.71 nM. Consider `Cc1nnc(-c2cnn3c(N4CCN(C(=O)C(C)C)CC4)cc(S(=O)(=O)NC4(C#N)CC4)cc23)s1` [Example 30, N-(1-cyanocyclopropyl)-7-(4-isobutyrylpiperazin-1-yl)-3-(5-methyl-1,3,4-thiadiazol-2-yl)pyrazolo[1,5-a]pyridine-5-sulfonamide], for which the IC50 was > 30000 nM in the test with HCC1806 (Homo sapiens, HCC1806, 168 h); < 100 nM against PARG (setting [1]); 88.9 nM at PARG (PARG, TFMU-ADPr substrate). Consider `[2H]C([2H])([2H])OC1(C(=O)N2CCN(c3cc(S(=O)(=O)NC4(C)CC4)cn4c(-c5nnc(C(F)(F)F)s5)ncc34)CC2)CC1` [Example 168, 8-(4-(1-(methoxy-d3)cyclopropane-1-carbonyl)piperazin-1-yl)-N-(1-methylcyclopropyl)-3-(5-(trifluoromethyl)-1,3,4-thiadiazol-2-yl)imidazo[1,5-a]pyridine-6-sulfonamide], for which the IC50 is 14 nM in the test with HCC1806 (Homo sapiens, HCC1806, 168 h) and 0.15 nM against PARG (PARG, TFMU-ADPr substrate). Taken in the same sequence, the figures for `CN1CC[C@@H]1C(=O)N1CCN(c2c(F)c(S(=O)(=O)NC3(C)CC3)cn3c(-c4nnc(C(F)(F)F)s4)ncc23)CC1` [Example 332, (R)-7-fluoro-8-(4-(1-methylazetidine-2-carbonyl)piperazin-1-yl)-N-(1-methylcyclopropyl)-3-(5-(trifluoromethyl)-1,3,4-thiadiazol-2-yl)imidazo[1,5-a]pyridine-6-sulfonamide] were 745 nM and 10.8 nM. With `CC1(NS(=O)(=O)c2cc(N3CCN(C(=O)C4(C)CCN4)CC3)c3cnc(-c4nnc(C(F)(F)F)s4)n3c2)CC1` (centres unmarked) [Example 321, 8-(4-(2-methylazetidine-2-carbonyl)piperazin-1-yl)-N-(1-methylcyclopropyl)-3-(5-(trifluoromethyl)-1,3,4-thiadiazol-2-yl)imidazo[1,5-a]pyridine-6-sulfonamide], the IC50 with HCC1806 (Homo sapiens, HCC1806, 168 h) turned out to be 175 nM; on PARG (PARG, TFMU-ADPr substrate), 2.93 nM.

In the case of `CC(C)C(=O)N1CCN(c2cc(S(=O)(=O)NC3(C)CC(F)(F)C3)cn3c(-c4nnc(C(F)F)s4)ncc23)CC1` [Example 61, N-(3,3-difluoro-1-methylcyclobutyl)-3-(5-(difluoromethyl)-1,3,4-thiadiazol-2-yl)-8-(4-isobutyrylpiperazin-1-yl)imidazo[1,5-a]pyridine-6-sulfonamide], the IC50 is > 30000 nM in the test with HCC1806 (Homo sapiens, HCC1806, 168 h); 100 to 500 nM on PARG (setting [1]); 121 nM against PARG (PARG, TFMU-ADPr substrate). On to `COC1(C(=O)N2CCN(c3cc(S(=O)(=O)NC4(C)CC4)cn4c(-c5nnc(C(F)F)s5)ncc34)C[C@H]2CO)CC1` [Example 201, (S)-3-(5-(difluoromethyl)-1,3,4-thiadiazol-2-yl)-8-(3-(hydroxymethyl)-4-(1-methoxycyclopropane-1-carbonyl)piperazin-1-yl)-N-(1-methylcyclopropyl)imidazo[1,5-a]pyridine-6-sulfonamide], for which the IC50 in the test with HCC1806 (Homo sapiens, HCC1806, 168 h) came out at 9.06 nM; against PARG (PARG, TFMU-ADPr substrate), 0.14 nM.

Consider `CC(C)C(=O)N1CCN(c2cc(S(=O)(=O)NC3(C)COC3)cn3c(-c4nnc(C(F)(F)F)s4)ncc23)C[C@H]1C` [Example 174, (R)-8-(4-isobutyryl-3-methylpiperazin-1-yl)-N-(3-methyloxetan-3-yl)-3-(5-(trifluoromethyl)-1,3,4-thiadiazol-2-yl)imidazo[1,5-a]pyridine-6-sulfonamide], for which the IC50 in the test on HCC1806 (Homo sapiens, HCC1806, 168 h) turned out to be 856 nM; at PARG (PARG, TFMU-ADPr substrate), 5.01 nM. Taken in the same sequence, the figures for `COC(C)C(=O)N1CCN(c2cc(S(=O)(=O)NC3(C)CC3)cn3c(-c4nnc(C(F)(F)F)s4)ncc23)CC1` (centres unmarked) [Example 328, 8-(4-(2-methoxypropanoyl)piperazin-1-yl)-N-(1-methylcyclopropyl)-3-(5-(trifluoromethyl)-1,3,4-thiadiazol-2-yl)imidazo[1,5-a]pyridine-6-sulfonamide] were 55.6 nM and 1.21 nM.

`CNC1(C(=O)N2CCN(c3cc(S(=O)(=O)NC4(C)CC4)cn4c(-c5nnc(C(F)(F)F)s5)ncc34)CC2)CC1` [Example 318, 8-(4-(1-(methylamino)cyclopropane-1-carbonyl)piperazin-1-yl)-N-(1-methylcyclopropyl)-3-(5-(trifluoromethyl)-1,3,4-thiadiazol-2-yl)imidazo[1,5-a]pyridine-6-sulfonamide]: the IC50 came to 363 nM in the test on HCC1806 (Homo sapiens, HCC1806, 168 h) and 1.84 nM at PARG (PARG, TFMU-ADPr substrate). Taken in the same sequence, the figures for `CC1(C(=O)N2CCN(c3cc(S(=O)(=O)NC4(C#N)CC4)cn4c(-c5nnc(C(F)(F)F)s5)ncc34)CC2)CC1` [Example 225, N-(1-cyanocyclopropyl)-8-(4-(1-methylcyclopropane-1-carbonyl)piperazin-1-yl)-3-(5-(trifluoromethyl)-1,3,4-thiadiazol-2-yl)imidazo[1,5-a]pyridine-6-sulfonamide] were 600 nM and 7.94 nM.

With `O=C(C1COC1)N1CCN(c2cc(S(=O)(=O)NC3CC3)cn3c(-c4nnc(C(F)(F)F)s4)ncc23)CC1` [Example 217, N-cyclopropyl-8-(4-(oxetane-3-carbonyl)piperazin-1-yl)-3-(5-(trifluoromethyl)-1,3,4-thiadiazol-2-yl)imidazo[1,5-a]pyridine-6-sulfonamide], the IC50 in the test with HCC1806 (Homo sapiens, HCC1806, 168 h) was found to be 3070 nM; on PARG (PARG, TFMU-ADPr substrate), 66.1 nM. Taken in the same sequence, the figures for `N#CC1(NS(=O)(=O)c2cc(N3CCN(C(=O)c4ccn[nH]4)CC3)c3cnc(-c4nnc(C(F)(F)F)s4)n3c2)CC1` [Example 235, 8-(4-(1H-pyrazole-5-carbonyl)piperazin-1-yl)-N-(1-cyanocyclopropyl)-3-(5-(trifluoromethyl)-1,3,4-thiadiazol-2-yl)imidazo[1,5-a]pyridine-6-sulfonamide] were 4940 nM and 4.37 nM.

As for `N#CC1(NS(=O)(=O)c2cc(C#Cc3c[nH]cn3)c3cnc(-c4nnc(C(F)F)s4)n3c2)CC1` [Example 376, 8-((1H-imidazol-4-yl)ethynyl)-N-(1-cyanocyclopropyl)-3-(5-(difluoromethyl)-1,3,4-thiadiazol-2-yl)imidazo[1,5-a]pyridine-6-sulfonamide], the IC50 with HCC1806 (Homo sapiens, HCC1806, 168 h) is 30000 nM. Turning to `O=S(=O)(NC1CC1)c1cc(N2Cc3c[nH]nc3C2)c2cnc(-c3nnc(C(F)(F)F)s3)n2c1` [Example 247, N-cyclopropyl-8-(2,6-dihydropyrrolo[3,4-c]pyrazol-5(4H)-yl)-3-(5-(trifluoromethyl)-1,3,4-thiadiazol-2-yl)imidazo[1,5-a]pyridine-6-sulfonamide], the IC50 in the test on HCC1806 (Homo sapiens, HCC1806, 168 h) came to 27200 nM. Same read-out and setting: next, `CC(C)C(=O)N1CCN(c2cc(S(=O)(=O)NC3(C#N)CC3)cc3c(-c4nnc(C(F)F)s4)nc(Cl)n23)CC1` [Example 98, 3-chloro-N-(1-cyanocyclopropyl)-1-(5-(difluoromethyl)-1,3,4-thiadiazol-2-yl)-5-(4-isobutyrylpiperazin-1-yl)imidazo[1,5-a]pyridine-7-sulfonamide]: > 30000 nM. Consider `N#CC1(NS(=O)(=O)c2cc(C#CC3CCOC3)c3cnc(-c4nnc(C(F)F)s4)n3c2)CC1` (centres unmarked) [Example 375, N-(1-cyanocyclopropyl)-3-(5-(difluoromethyl)-1,3,4-thiadiazol-2-yl)-8-((tetrahydrofuran-3-yl)ethynyl)imidazo[1,5-a]pyridine-6-sulfonamide], for which, in the test on HCC1806 (Homo sapiens, HCC1806, 168 h), the IC50 is 855 nM. Regarding `N#CC1(NS(=O)(=O)c2cc(C#Cc3cncs3)c3cnc(-c4nnc(C(F)F)s4)n3c2)CC1` [Example 374, N-(1-cyanocyclopropyl)-3-(5-(difluoromethyl)-1,3,4-thiadiazol-2-yl)-8-(thiazol-5-ylethynyl)imidazo[1,5-a]pyridine-6-sulfonamide], in the test on HCC1806 (Homo sapiens, HCC1806, 168 h), the IC50 came out at 2320 nM.

Turning to `CC(C)C(=O)NC1CCCN(c2cc(S(=O)(=O)NC3(C#N)CC3)cn3c(-c4nnc(C(F)(F)F)s4)ncc23)C1` (centres unmarked) [Example 267, N-(1-(6-(N-(1-cyanocyclopropyl)sulfamoyl)-3-(5-(trifluoromethyl)-1,3,4-thiadiazol-2-yl)imidazo[1,5-a]pyridin-8-yl)piperidin-3-yl)isobutyramide], in the test with HCC1806 (Homo sapiens, HCC1806, 168 h), the half-maximal inhibitory concentration (IC50) came to 1500 nM. Still for that read-out and setting: next, `C[C@H]1CN(c2cc(S(=O)(=O)NC3(C)COC3)cn3c(-c4nnc(C(F)F)s4)nc(Cl)c23)C[C@H](CO)O1` [Example 397, 1-chloro-3-(5-(difluoromethyl)-1,3,4-thiadiazol-2-yl)-8-((2R,6S)-2-(hydroxymethyl)-6-methylmorpholino)-N-(3-methyloxetan-3-yl)imidazo[1,5-a]pyridine-6-sulfonamide]: 530 nM; `N#CC1(NS(=O)(=O)c2cc(N3CCC(N)CC3)c3cnc(-c4nnc(C(F)(F)F)s4)n3c2)CC1` [Example 263, 8-(4-aminopiperidin-1-yl)-N-(1-cyanocyclopropyl)-3-(5-(trifluoromethyl)-1,3,4-thiadiazol-2-yl)imidazo[1,5-a]pyridine-6-sulfonamide]: 4500 nM.
